From patent publication US20080138280A1, “Composition and Methods For Inhibiting Cell Survival” (The Cleveland Clinic Foundation, priority 2003, published 2008)

Tests used:
NIH-OVCAR-3 cells = test: Colony formation after gamma irradiation; type: cell-based; conditions: NO-Cbl 50 μM 16 hours, then 1, 2 and 4 Gy; colonies after 23 days
Method: FIG. 7 illustrates that NO-Cbl sensitizes NIH-OVCAR-3 cells to gamma irradiation. NIH-OVCAR-3 cells were pre-treated with NO-Cbl (50 μM) for 16 hours. Cells were then washed and irradiated with 1, 2, and 4 Gy from a Cesium source. Cells were plated in 100 mm dishes and allowed to form colonies. Plates were examined after 23 days and colony number was determined by automated counting of stained colonies. Data is expressed as percent control colony forming units (CFU).

[1] = test system: NF-κB DNA binding activity; test: Electrophoretic mobility shift assay (EMSA) of NF-κB DNA binding activity, A375 cells; type: cell-based, human
Method: Electrophoretic mobility shift assay (EMSA). These methods apply generally to FIGS. 5, 9-10 which employ EMSA analysis. In FIG. 5, A375 cells were treated with NO donors (NO-Cbl, NOC-18, SNAP, 100 μM, 16 h), or with Apo2L/TRAIL (100 ng/ml) or TNF-α (20 ng/ml) for 1 h, or with the combination of NO donors (16 h) followed by Apo2L/TRAIL or TNF-α (1 h). Plates were washed twice with ice-cold PBS. Cells were resuspended in cold 1× lysis buffer (20 mM HEPES, 20 mM NaF, 1 mM Na3VO4, 1 mM EDTA, 1 mM DTT, 100 mM NaCl, 10% glycerol and protease inhibitors) and incubated on ice for 30 min followed by centrifugation at 4° C. at 10,000 rpm for 10 min. Supernatants were transferred to fresh tubes and protein concentrations were assessed using the Bradford method (Bio-RAD protein assay, BioRad, Hercules, Calif.). The NF-κB consensus binding sequence (5′[…] 3′) from the IFN-β gene promoter was end-labeled with γ^32P dATP ([…]) using T4 polynucleotide kinase. DNA binding reactions were performed in 20 μl volume containing 10 μg protein, 20 mM HEPES, 10 mM KCl, 0.1% NP-40, 0.5 mM DIT and 10% glycerol. The binding reaction was performed for 20 min at 25° C. Complexes were separated from the free probe on 6% non-denaturing polyacrylamide gels in 0.5×TBE buffer at 200 V for 2 h. Gels were dried and exposed to film.
Inhibition of NF-κB survival signaling by NO-Cbl. Because NF-κB is an important cell survival regulator, we examined the effects of NO-Cbl on NF-κB DNA binding activity. The NF-κB binding sequence from the IFN-β gene promoter was used as a probe to assess DNA binding activity. A375 cells were treated with TNF-α (20 ng/ml), Apo2L/TRAIL (100 ng/ml) or NO-Cbl (100 μM). FIG. 5, illustrates an Electrophoretic Mobility Shift Assay (EMSA) of NF-κB DNA binding activity. Pre-treatment of A375 cells with NO-Cbl inhibited the NF-κB DNA binding activity induced by Apo2L/TRAIL and TNF-α. […] NF-κB-luc transfected A375 cells were pre-treated with NO-Cbl followed by Apo2L/TRAIL or TNF-α. […] Cell lysates were analyzed for NF-κB-luc reporter activity. […]

A375 melanoma xenografts = test: Growth of subcutaneous A375 xenografts in nude mice; type: in vivo
Description: In vivo experiments. Please see FIG. 2. The Institutional Animal Care and Use Committee at the Cleveland Clinic Foundation approved all procedures for animal experimentation. Five week-old NCR male athymic nude homozygous (nu/nu) mice (Taconic, Germantown, N.Y.) were inoculated with A375 tumors. Each experimental group contained 4 mice, each mouse bearing two tumors, on opposite flanks. There were four experimental groups (untreated, single agents, and the combination). Cultured tumor cells (4×10^6) were inoculated into flanks in the mid-axillary line. NO-Cbl was given twice daily (50 mg/kg s.c.) and recombinant trimeric Apo2L/TRAIL (50 mg/kg s.c.) was administered every other day, starting on day 2. Tumor volume was measured three times a week using the formula for a prolate spheroid: (4/3) πab^2 where 2a=major axis, 2b=minor axis. Formalin-fixed sections were processed by the Cleveland Clinic Histology Core. Sections were stained with hematoxylin and eosin and evaluated for pathologic changes in a blinded fashion.
Anti-tumor effects of NO-Cbl, Apo2L/TRAIL, and the combination in vivo. To test drug activity in vivo, subcutaneous A375 xenografts were inoculated in nude mice. FIG. 2. illustrates the effect of NO-Cbl, Apo2L/TRAIL and the combination on the growth of A375 melanoma xenografts. NCR male athymic nude (nulnu) mice (n=4 per group) were injected subcutaneously with 4×10^6 A375 cells. Drug treatments began on day two (2) after injection of tumor cells. NO-Cbl was administered twice daily for the duration of the study. Apo2L/TRAIL was administered every other day. The control mice received phosphate buffered saline. The tumor volume was measured three times per week. Data points represent the mean tumor volume (in cubic mm)±SEM. Daily drug treatments began on day 2 following implantation, at which time tumors were both visible and palpable. Untreated control tumors grew unimpeded. After 25 days, the tumors from mice treated with NO-Cbl were 67.4% smaller than the control tumors (p≦0.0002) and tumors from mice treated with Apo2L/TRAIL were 89.4% smaller than the control tumors (p≦0.00001). The tumors from mice treated with the combination of NO-Cbl and Apo2L/TRAIL were 95.7% smaller than the control tumors (p≦0.000005).

## nitrosylcobalamin [NO-Cbl]
NIH-OVCAR-3 cells
  sensitization to gamma irradiation (colony forming units): sensitizes
[1]; NO donor 100 μM pre-treatment 16 h, Apo2L/TRAIL 100 ng/ml 1 h
  NF-κB DNA binding activity induced by Apo2L/TRAIL: inhibited
[1]; NO-Cbl 100 μM pre-treatment 16 h, TNF-α 20 ng/ml 1 h
  NF-κB DNA binding activity induced by TNF-α: inhibited
A375 melanoma xenografts; A375 xenografts, nude mice
  tumor regression: Tumor regression was observed
A375 melanoma xenografts; after 25 days, NO-Cbl 50 mg/kg s.c. twice daily, Apo2L/TRAIL 50 mg/kg s.c. every other day, from day 2
  tumors smaller than the control tumors: 67.4%
